# Measurements: ChEMBL document CHEMBL4229385, “Study of the structure-activity relationship of polymyxin analogues” (2018)
# Where a SMILES comes first, the peptide text is derived from it. Bridges are numbered along the chain shown (N, C = ends). [ ]: non-standard residue; d: D form. The star is where a group is joined. Benzoyl(4-Ph) = O=C(c1ccc(-c2ccccc2)cc1)*; Bip = N[C@@H](Cc1ccc(-c2ccccc2)cc1)C(=O)O; Octanoyl = CCCCCCCC(=O)*; Dab = NCC[C@H](N)C(=O)O
# Assays:
# Type in all cases: functional
# [1] = test system: Pseudomonas aeruginosa; experiment: Antibacterial activity against multidrug-resistant Pseudomonas aeruginosa KUB2705 by agar dilution method
# [2] = test system: Pseudomonas aeruginosa; experiment: Antibacterial activity against amikacin/ciprofloxacin-resistant Pseudomonas aeruginosa KUB2704 by agar dilution method
# [3] = test system: Pseudomonas aeruginosa; experiment: Antibacterial activity against amikacin/imipenem-resistant Pseudomonas aeruginosa KUB2703 by agar dilution method
# [4] = test system: Pseudomonas aeruginosa; experiment: Antibacterial activity against Pseudomonas aeruginosa E-2 by agar dilution method
# [5] = test system: Pseudomonas aeruginosa; experiment: Antibacterial activity against Pseudomonas aeruginosa PAO1 by agar dilution method
compound,measurement,setting,value
C[C@@H](O)[C@@H]1NC(=O)[C@H](CCN)NC(=O)[C@H](CCN)NC(=O)[C@H](Cc2ccccc2)NC(=O)[C@@H](Cc2ccc(-c3ccccc3)cc2)NC(=O)[C@H](CCN)NC(=O)[C@@H](NC(=O)[C@H](CCN)NC(=O)[C@@H](NC(=O)[C@H](CCN)NC(=O)c2ccccc2)[C@@H](C)O)CCNC1=O,MIC,[1],8 µg/mL
same,MIC,[2],8 µg/mL
same,MIC,[3],8 µg/mL
same,MIC,[4],8 µg/mL
same,MIC,[5],4 µg/mL
C[C@@H](O)[C@@H]1NC(=O)[C@H](CCN)NC(=O)[C@H](CCN)NC(=O)[C@H](Cc2ccccc2)NC(=O)[C@@H](Cc2ccccc2)NC(=O)[C@H](CCN)NC(=O)[C@@H](NC(=O)[C@H](CCN)NC(=O)[C@@H](NC(=O)[C@H](CCN)NC(=O)c2ccc(-c3ccccc3)cc2)[C@@H](C)O)CCNC1=O,MIC,[1],8 µg/mL
same,MIC,[2],8 µg/mL
same,MIC,[3],8 µg/mL
same,MIC,[4],8 µg/mL
same,MIC,[5],4 µg/mL
C[C@@H](O)[C@@H]1NC(=O)[C@H](CCN)NC(=O)[C@H](CCN)NC(=O)[C@H](Cc2ccc(-c3ccccc3)cc2)NC(=O)[C@@H](Cc2ccccc2)NC(=O)[C@H](CCN)NC(=O)[C@@H](NC(=O)[C@H](CCN)NC(=O)[C@@H](NC(=O)[C@H](CCN)NC(=O)c2ccc(-c3ccccc3)cc2)[C@@H](C)O)CCNC1=O ({Benzoyl(4-Ph)}-[Dab]T[Dab][Dab][Dab][dF][Bip][Dab][Dab]T; lactam 4-C),MIC,[1],16 µg/mL
same,MIC,[2],16 µg/mL
same,MIC,[3],16 µg/mL
same,MIC,[4],16 µg/mL
same,MIC,[5],16 µg/mL
C[C@@H](O)[C@@H]1NC(=O)[C@H](CCN)NC(=O)[C@H](CCN)NC(=O)[C@H](Cc2ccc(-c3ccccc3)cc2)NC(=O)[C@@H](Cc2ccccc2)NC(=O)[C@H](CCN)NC(=O)[C@@H](NC(=O)[C@H](CCN)NC(=O)[C@@H](NC(=O)[C@H](CCN)NC(=O)c2cccc(-c3ccccc3)c2)[C@@H](C)O)CCNC1=O,MIC,[1],16 µg/mL
same,MIC,[2],> 16 µg/mL
same,MIC,[3],> 16 µg/mL
same,MIC,[4],> 16 µg/mL
same,MIC,[5],16 µg/mL
COLISTIN,MIC,[1],4 µg/mL
same,MIC,[2],4 µg/mL
same,MIC,[3],2 µg/mL
same,MIC,[4],2 µg/mL
same,MIC,[5],4 µg/mL
C[C@@H](O)[C@@H]1NC(=O)[C@H](CCN)NC(=O)[C@H](CCN)NC(=O)[C@H](Cc2ccccc2)NC(=O)[C@@H](Cc2ccc(-c3ccccc3)cc2)NC(=O)[C@H](CCN)NC(=O)[C@@H](NC(=O)[C@H](CCN)NC(=O)[C@@H](NC(=O)[C@H](CCN)NC(=O)c2cccc(-c3ccccc3)c2)[C@@H](C)O)CCNC1=O,MIC,[1],16 µg/mL
same,MIC,[2],16 µg/mL
same,MIC,[3],16 µg/mL
same,MIC,[4],> 16 µg/mL
same,MIC,[5],16 µg/mL
CCCCCCCCC(CCCCCC)C(=O)N[C@@H](CCN)C(=O)N[C@H](C(=O)N[C@@H](CCN)C(=O)N[C@H]1CCNC(=O)[C@H]([C@@H](C)O)NC(=O)[C@H](CCN)NC(=O)[C@H](CCN)NC(=O)[C@H](CC(C)C)NC(=O)[C@@H](CC(C)C)NC(=O)[C@H](CCN)NC1=O)[C@@H](C)O (stereo not given in full),MIC,[1],> 16 µg/mL
same,MIC,[2],> 16 µg/mL
same,MIC,[3],16 µg/mL
same,MIC,[4],16 µg/mL
same,MIC,[5],> 16 µg/mL
C[C@@H](O)[C@@H]1NC(=O)[C@H](CCN)NC(=O)[C@H](CCN)NC(=O)[C@H](Cc2ccccc2)NC(=O)[C@@H](Cc2ccccc2)NC(=O)[C@H](CCN)NC(=O)[C@@H](NC(=O)[C@H](CCN)NC(=O)[C@@H](NC(=O)[C@H](CCN)NC(=O)c2ccccc2)[C@@H](C)O)CCNC1=O,MIC,[1],2 µg/mL
same,MIC,[2],2 µg/mL
same,MIC,[3],4 µg/mL
same,MIC,[4],2 µg/mL
same,MIC,[5],16 µg/mL
CCCCCCCC(=O)N[C@@H](CCN)C(=O)N[C@H](C(=O)N[C@@H](CCN)C(=O)N[C@H]1CCNC(=O)[C@H]([C@@H](C)O)NC(=O)[C@H](CCN)NC(=O)[C@H](CCN)NC(=O)[C@H](CC(C)C)NC(=O)[C@@H](CC(C)C)NC(=O)[C@H](CCN)NC1=O)[C@@H](C)O (Octanoyl-[Dab]T[Dab][Dab][Dab][dL]L[Dab][Dab]T; lactam 4-C),MIC,[1],4 µg/mL
same,MIC,[2],8 µg/mL
same,MIC,[3],16 µg/mL
same,MIC,[4],4 µg/mL
same,MIC,[5],8 µg/mL
C[C@@H](O)[C@@H]1NC(=O)[C@H](CCN)NC(=O)[C@H](CCN)NC(=O)[C@H](Cc2ccccc2)NC(=O)[C@@H](Cc2ccc(-c3ccccc3)cc2)NC(=O)[C@H](CCN)NC(=O)[C@@H](NC(=O)[C@H](CCN)NC(=O)[C@@H](NC(=O)[C@H](CCN)NC(=O)c2ccc(-c3ccccc3)cc2)[C@@H](C)O)CCNC1=O,MIC,[1],16 µg/mL
same,MIC,[2],16 µg/mL
same,MIC,[3],16 µg/mL
same,MIC,[4],16 µg/mL
same,MIC,[5],16 µg/mL
CCCCCCCC(=O)N[C@@H](CCN)C(=O)N[C@H](C(=O)N[C@@H](CCN)C(=O)N[C@H]1CCNC(=O)[C@H]([C@@H](C)O)NC(=O)[C@H](CCN)NC(=O)[C@H](CCN(C)C)NC(=O)[C@H](CC(C)C)NC(=O)[C@@H](CC(C)C)NC(=O)[C@H](CCN)NC1=O)[C@@H](C)O,MIC,[1],4 µg/mL
same,MIC,[2],4 µg/mL
same,MIC,[3],4 µg/mL
same,MIC,[4],2 µg/mL
same,MIC,[5],4 µg/mL
CCCCCCCC(=O)N[C@@H](CCN(C)C)C(=O)N[C@H](C(=O)N[C@@H](CCN)C(=O)N[C@H]1CCNC(=O)[C@H]([C@@H](C)O)NC(=O)[C@H](CCN)NC(=O)[C@H](CCN)NC(=O)[C@H](CC(C)C)NC(=O)[C@@H](CC(C)C)NC(=O)[C@H](CCN)NC1=O)[C@@H](C)O,MIC,[1],4 µg/mL
same,MIC,[2],8 µg/mL
same,MIC,[3],> 16 µg/mL
same,MIC,[4],4 µg/mL
same,MIC,[5],8 µg/mL
CCCCC/C=C\C/C=C\CCCCCCCC(=O)N[C@@H](CCN)C(=O)N[C@H](C(=O)N[C@@H](CCN)C(=O)N[C@H]1CCNC(=O)[C@H]([C@@H](C)O)NC(=O)[C@H](CCN)NC(=O)[C@H](CCN)NC(=O)[C@H](CC(C)C)NC(=O)[C@@H](CC(C)C)NC(=O)[C@H](CCN)NC1=O)[C@@H](C)O,MIC,[1],> 16 µg/mL
same,MIC,[2],> 16 µg/mL
same,MIC,[3],> 16 µg/mL
same,MIC,[4],16 µg/mL
same,MIC,[5],> 16 µg/mL
CCCCCCCCC(CCCCCCCC)C(=O)N[C@@H](CCN)C(=O)N[C@H](C(=O)N[C@@H](CCN)C(=O)N[C@H]1CCNC(=O)[C@H]([C@@H](C)O)NC(=O)[C@H](CCN)NC(=O)[C@H](CCN)NC(=O)[C@H](CC(C)C)NC(=O)[C@@H](CC(C)C)NC(=O)[C@H](CCN)NC1=O)[C@@H](C)O,MIC,[1],> 16 µg/mL
same,MIC,[2],> 16 µg/mL
same,MIC,[3],> 16 µg/mL
same,MIC,[4],> 16 µg/mL
same,MIC,[5],> 16 µg/mL
C[C@@H](O)[C@@H]1NC(=O)[C@H](CCN)NC(=O)[C@H](CCN)NC(=O)[C@H](Cc2ccc(-c3ccccc3)cc2)NC(=O)[C@@H](Cc2ccccc2)NC(=O)[C@H](CCN)NC(=O)[C@@H](NC(=O)[C@H](CCN)NC(=O)[C@@H](NC(=O)[C@H](CCN)NC(=O)c2ccccc2)[C@@H](C)O)CCNC1=O,MIC,[1],8 µg/mL
same,MIC,[2],8 µg/mL
same,MIC,[3],8 µg/mL
same,MIC,[4],16 µg/mL
same,MIC,[5],8 µg/mL
CCCCCCCC(=O)N[C@@H](CCN)C(=O)N[C@H](C(=O)N[C@@H](CCN)C(=O)N[C@H]1CCNC(=O)[C@H]([C@@H](C)O)NC(=O)[C@H](CCN(C)C)NC(=O)[C@H](CCN)NC(=O)[C@H](CC(C)C)NC(=O)[C@@H](CC(C)C)NC(=O)[C@H](CCN)NC1=O)[C@@H](C)O,MIC,[1],16 µg/mL
same,MIC,[2],> 16 µg/mL
same,MIC,[3],> 16 µg/mL
same,MIC,[4],> 16 µg/mL
same,MIC,[5],> 16 µg/mL
CCCCCCCC(=O)N[C@@H](CCN)C(=O)N[C@H](C(=O)N[C@@H](CCN(C)C)C(=O)N[C@H]1CCNC(=O)[C@H]([C@@H](C)O)NC(=O)[C@H](CCN)NC(=O)[C@H](CCN)NC(=O)[C@H](CC(C)C)NC(=O)[C@@H](CC(C)C)NC(=O)[C@H](CCN)NC1=O)[C@@H](C)O,MIC,[1],4 µg/mL
same,MIC,[2],4 µg/mL
same,MIC,[3],4 µg/mL
same,MIC,[4],2 µg/mL
same,MIC,[5],4 µg/mL
CCCCCCCC(=O)N[C@@H](CCN)C(=O)N[C@H](C(=O)N[C@@H](CCN)C(=O)N[C@H]1CCNC(=O)[C@H]([C@@H](C)O)NC(=O)[C@H](CCN)NC(=O)[C@H](CCN)NC(=O)[C@H](CC(C)C)NC(=O)[C@@H](CC(C)C)NC(=O)[C@H](CCN(C)C)NC1=O)[C@@H](C)O,MIC,[1],8 µg/mL
same,MIC,[2],> 16 µg/mL
same,MIC,[3],> 16 µg/mL
same,MIC,[4],> 16 µg/mL
same,MIC,[5],> 16 µg/mL
C[C@@H](O)[C@@H]1NC(=O)[C@H](CCN)NC(=O)[C@H](CCN)NC(=O)[C@H](Cc2ccccc2)NC(=O)[C@@H](Cc2ccccc2)NC(=O)[C@H](CCN)NC(=O)[C@@H](NC(=O)[C@H](CCN)NC(=O)[C@@H](NC(=O)[C@H](CCN)NC(=O)c2cccc(-c3ccccc3)c2)[C@@H](C)O)CCNC1=O,MIC,[1],4 µg/mL
same,MIC,[2],8 µg/mL
same,MIC,[3],8 µg/mL
same,MIC,[4],8 µg/mL
same,MIC,[5],8 µg/mL
